Read-outs that look alike come from different tables or passages of the source.
Key:
[1] = test system: cardiac contractility; settings: cited from earlier work; for Expected effect on contractility in isolated cardiomyocytes/heart muscles / IC50 / EC50: Refs of Supplementary Table 1, isolated cardiomyocytes/heart muscles; for IC50: negative inotropy, read-out: Expected effect on contractility in isolated cardiomyocytes/heart muscles, IC50; for EC50: read-out: Expected effect on contractility in isolated cardiomyocytes/heart muscles, EC50
[2] = cited from earlier work; for FTPC: free therapeutic plasma concentration, Refs of Supplementary Table 1; for FPTC (free plasma therapeutic concentration): ref Supplementary Table 1
[3] = test system: heart; set-up: method as in Refs column of Supplementary Table 1; settings: Refs of Supplementary Table 1; cited from earlier work
[4] = test system: hiPSC-CMs; assay: Training set contractility in hiPSC-CMs on TTM, CellOPTIQ and EHT platforms; format: cell-based, human; settings: for inotropy (CA) response: trend or significant response, Supplementary Figure 3
Method: The training set of 8 drugs was used to test and refine protocols. […] For each parameter, the percentage change in drug-treated samples relative to their respective vehicle control was calculated using the formula ([drug/drug baseline]/[vehicle/vehicle baseline])*100–100. […] These studies allowed unification of SOPs, although physical and technical constraints between the platforms meant that some unavoidable differences remained (Supplementary Table 2).
Supplementary Figure 3: Training sets to unify drug testing procedures. […] The percentage change in drug treated samples is relative to their respective vehicle control. Unpaired T-test. * p<0.05; ** p<0.01; *** p<0.001; **** p<0.0001.

[5] = test system: hiPSC-CM EHTs; assay: EHT contractility with beat rate slowed by 300 nM ivabradine and electrical pacing 0.5-2.0 Hz; format: cell-based, human; settings: EHTs with 300 nM ivabradine, paced; only at 0.5 and 0.7 Hz, sometimes at 1 Hz, never at 1.5 or 2 Hz; high concentration bolus
Method: We extended these studies to the 3D EHT platform, this time slowing spontaneous beating to < 0.5 Hz with 300 nM ivabradine, a pharmacological blocker of the “funny” If current ([Bois et al., 1996]). […] Whereas force-frequency relationships was negative above 1.5 Hz, it was positive between 0.5 and 1.5 Hz, evidenced by a 147% increase in force generation concurrent with significant shortening of CT and RT (Supplementary Figure 6). We therefore re-evaluated 6 of the PIs in the presence of 300 nM ivabradine with electrical pacing at 0.5, 0.7, 1.0, 1.5, and 2.0 Hz. These also included epinephrine, levosimendan, and pimobendan, which had been incorrectly predicted by EHT:R-PAT and/or EHT:ERC platform-cell combinations. […] Thus, in both 2D and 3D configurations, lower beating frequencies led to increased predictivity for PIs.
Figure 5. Slowed beat rate increases the predictivity of positive inotropes (PIs) in 3D engineered heart tissues (EHTs). Contraction analysis was carried out using EHTs with 6 of the PIs from the drug test set: epinephrine (Epi), forskolin (For), levosimendan (Lev), pimobendan (Pim), dobutamine (Dob), and milrinone (Mil) which had been predicted with variable accuracy (Figure 4A, web tool). […] Scatter plots show percentage changes relative to baseline at respective frequency. Averaged peaks for force are shown for baseline (BL, black peaks) versus after treatment in EHTs paced at 0.5 Hz (blue peaks) or 2.0 Hz (red peaks). Dunnett’s stats versus baseline at respective frequency: *p < .05; **p < .01; ***p < .001; ****p < .0001.
Supplementary Figure 6. Positive force frequency relationship in EHTs paced between 0.5 and 1.5 Hz. Spontaneous beat rate of EHTs was reduced by 3 hour pre-treatment with 300 nM ivabradine, an If current inhibitor. […] CA increased from 0.5 to 1.5 Hz but plateaued and declined at higher frequencies. These changes were reflected in the CT and RT data. Dunnett's stats vs vehicle control: *, P<0.05; **, P<0.01; ***, P<0.001; ****, P<0.0001.

[6] = heart muscle, at 500 µM, ref (Kirby et al. 1992), (Baudet et al. 1993)

## Cn1c(=O)c2c(ncn2C)n(C)c1=O [caffeine]
[1]
  Expected effect on contractility in isolated cardiomyocytes/heart muscles: Small PI and PL at 100 µM, transient large PI, NL at >10 mM

## Cc1ccc(N(CC2=NCCN2)c2cccc(O)c2)cc1 [Phentolamine]
[1]; above 10 µM, via modulation of fast sodium and L-type calcium channels, ref Rosen et al., 1971, Sada, 1978
  inotropic effect at concentrations above 10 µM: negative inotropy
[1]; approximately 2.5 µM in patients, ref Wallis et al., 2015
  inotropic effect at free plasma concentrations: neutral inotrope
[1]
  IC50: ~20000 nM
[2]; patients, ref Wallis et al., 2015
  free plasma concentration in patients: approximately 2.5 µM

## CC(=O)Nc1ccc(O)cc1 [Paracetamol]
[3]
  Expected cardiac effects in vivo: None
[1]
  Expected effect on contractility in isolated cardiomyocytes/heart muscles: None
[2]
  FTPC: 50 µM
  FPTC (free plasma therapeutic concentration): 50 µM

## CNC(=O)c1cc(Oc2ccc(NC(=O)Nc3ccc(Cl)c(C(F)(F)F)c3)cc2)ccn1 [Sorafenib]
[3]
  Expected cardiac effects in vivo: None or NI at high doses, delayed cardiotox
[1]
  Expected effect on contractility in isolated cardiomyocytes/heart muscles: None (feline and canine CM, but cell death), NI (rat heart)
[2]
  FTPC: 0.03 µM
  FPTC (free plasma therapeutic concentration): 0.03 µM

## CCCc1nn(C)c2c(=O)[nH]c(-c3cc(S(=O)(=O)N4CCN(C)CC4)ccc3OCC)nc12 [Sildenafil]
[3]
  Expected cardiac effects in vivo: None or PI+PC (indirect)
[1]
  Expected effect on contractility in isolated cardiomyocytes/heart muscles: None

## COC(=O)C1=C(C)NC(C)=C([N+](=O)[O-])C1c1ccccc1C(F)(F)F (stereo not drawn) [Bay K 8644]
[3]
  Expected cardiac effects in vivo: PI (indirect NC because of RR increase)
[1]
  Expected effect on contractility in isolated cardiomyocytes/heart muscles: PI, NL

## COC(=O)C1=C(C)NC(C)=C(C(=O)OC)C1c1ccccc1[N+](=O)[O-] [nifedipine]
[3]
  Expected cardiac effects in vivo: Small NI (direct) overridden by adrenergic activation, PC (indirect)
[1]
  IC50: 100 nM
[4]
  inotropy (CA) response: negative inotropy

## COc1ccc(C(=O)N2CCCc3cc(C4=NNC(=O)SC4C)ccc32)cc1OC (stereo not drawn) [EMD 57033]
[1]
  Expected effect on contractility in isolated cardiomyocytes/heart muscles: PI, NL
  EC50: ~5000 nM
[2]
  FTPC: 16 µM

## COc1ccc(-c2nc3ccc(C4=NNC(=O)CC4C)cc3[nH]2)cc1 (stereo not drawn) [Pimobendan]
[5]
  CA response: increased contraction amplitude
[3]
  Expected cardiac effects in vivo: PI, small PC
[1]
  EC50: 34000 nM
[2]
  FTPC: 0.005 to 0.01 µM
  FPTC (free plasma therapeutic concentration): 0.005 to 0.01 µM

## CN(C)C/C=C(/c1ccc(Br)cc1)c1cccnc1 [Zimelidine]
[3]
  Expected cardiac effects in vivo: None (at ther. doses), QT and QRS widening at high doses

## COc1ccc(CCN(C)CCCC(C#N)(c2ccc(OC)c(OC)c2)C(C)C)cc1OC (stereo not drawn) [Verapamil]
[3]
  Expected cardiac effects in vivo: NI (direct) partially masked by adrenergic activation (indirect), NC or none, ND (direct)
[1]
  IC50: 100 nM

## COc1ccc(Cl)cc1C(=O)NCCc1ccc(S(=O)(=O)NC(=O)NC2CCCCC2)cc1 [Glibenclamide]
[3]
  Expected cardiac effects in vivo: None or PI in ischemia
[1]
  Expected effect on contractility in isolated cardiomyocytes/heart muscles: None; PI in ischemia or presence of KATP opener; NI in adrenalectomized dogs, NE in isolated dog heart trabeculae
[2]
  FTPC: 0.02 to 0.06 µM
  FPTC (free plasma therapeutic concentration): 0.02 to 0.06 µM

## CN(C)CCCC1(c2ccc(F)cc2)OCc2cc(C#N)ccc21 (stereo not drawn) [Citalopram]
[3]
  Expected cardiac effects in vivo: None (at therapeutic doses), higher risk of TdP
[1]; at 30 µM, in hEHT, ref (Witchel et al. 2002), (Mannhardt et al. 2017), (Rao 2007)
  NI: -57%
[1]; at 30 µM, in human atria, ref (Witchel et al. 2002), (Mannhardt et al. 2017), (Rao 2007)
  NI: -38%
[1]
  Expected effect on contractility in isolated cardiomyocytes/heart muscles: NI at 30 µM
[2]
  FTPC: 0.05 µM
  FPTC (free plasma therapeutic concentration): 0.05 µM

## CC(C)NCC(O)COc1ccc(CC(N)=O)cc1 (stereo not drawn) [Atenolol]
[3]
  Expected cardiac effects in vivo: NI, NC, ND
[1]
  Expected effect on contractility in isolated cardiomyocytes/heart muscles: None (in absence of agonist) until 3000 µM (in contrast to e.g. propranolol)

## CC(=O)Oc1ccccc1C(=O)O [Acetylsalicylic acid]
[3]
  Expected cardiac effects in vivo: None
[1]
  Expected effect on contractility in isolated cardiomyocytes/heart muscles: None
[2]
  FTPC: 0.3 to 2 µM
  FPTC (free plasma therapeutic concentration): 0.3 to 2 µM

## C[C@H]1O[C@@H](O[C@H]2[C@@H](O)C[C@H](O[C@H]3[C@@H](O)C[C@H](O[C@H]4CC[C@@]5(C)[C@H](CC[C@@H]6[C@@H]5C[C@@H](O)[C@]5(C)[C@@H](C7=CC(=O)OC7)CC[C@]65O)C4)O[C@@H]3C)O[C@@H]2C)C[C@H](O)[C@@H]1O [digoxin]
[3]
  Expected cardiac effects in vivo: PI, arrhythmias
[1]
  Expected effect on contractility in isolated cardiomyocytes/heart muscles: PI+ PL (< 1 µM, slowly developing, t1/2 conc.-dependent) NI + diast. shortening (>1 µM)
[4]; 2D configuration
  RT response: tended to increase RT
[4]
  inotropy (CA) response: positive inotropy

## CC(C)NCC(O)c1ccc(O)c(O)c1 (stereo not drawn) [isoprenaline]
[3]
  Expected cardiac effects in vivo: PI, PC
[1]
  EC50: 10 nM
[2]
  FTPC: 0.0095 µM
[4]; 3D EHTs
  CT and RT response: decreased of both CT and RT
[4]
  inotropy (CA) response: positive inotropy

## CC(C)(C)NCC(O)c1cc(O)cc(O)c1 (stereo not drawn) [Terbutaline]
[1]
  EC50: 3000 nM
[2]
  FTPC: 1.3 µM
  FPTC (free plasma therapeutic concentration): 1.3 µM

## CCC(C)n1ncn(-c2ccc(N3CCN(c4ccc(OCC5COC(Cn6cncn6)(c6ccc(Cl)cc6Cl)O5)cc4)CC3)cc2)c1=O (stereo not drawn) [Itraconazole]
[1]; at 0.3 µM, rabbit heart, ref (Head et al. 2015), (Qu et al. 2013), (Bellmann 2007)
  NI: -30%
[2]
  FTPC: 0.00086 µM
  FPTC (free plasma therapeutic concentration): 0.00086 µM

## C/C=C(/C)C(=O)O[C@H]1C(C)=C2[C@H]([C@@H]1OC(=O)CCCCCCC)[C@@](C)(OC(C)=O)C[C@H](OC(=O)CCC)[C@@]1(O)[C@H]2OC(=O)[C@@]1(C)O [thapsigargin]
[1]; [6]
  NI: ~50%
  NL: ~20%
[1]; isolated myocytes, at 0.1 µM, ref (Kirby et al. 1992), (Baudet et al. 1993)
  NI: ~90%

## C[C@H](CS)C(=O)N1CCC[C@H]1C(=O)O [Captopril]
[3]
  Expected cardiac effects in vivo: None
[1]
  Expected effect on contractility in isolated cardiomyocytes/heart muscles: None
[2]
  FTPC: 1 to 2 µM
  FPTC (free plasma therapeutic concentration): 1 to 2 µM

## CC(C)[C@@]1(O)[C@@H](OC(=O)c2ccc[nH]2)[C@@]2(O)[C@@]3(C)C[C@]4(O)O[C@@]5([C@H](O)[C@@H](C)CC[C@]35O)[C@@]2(O)[C@@]14C [ryanodine]
[1]
  Expected effect on contractility in isolated cardiomyocytes/heart muscles: NI, NCl, species dependent biphasic
  IC50: ~10 nM

## O=C(NCC1CCCCN1)c1cc(OCC(F)(F)F)ccc1OCC(F)(F)F (stereo not drawn) [Flecainide]
[1]
  IC50: 300 nM

## CNC[C@H](O)c1ccc(O)c(O)c1 [Epinephrine]
[5]
  CA response: increased contraction amplitude
[3]
  Expected cardiac effects in vivo: PI, PC
[1]
  EC50: 100 nM
[2]
  FTPC: 0.0002 to 0.050 µM
  FPTC (free plasma therapeutic concentration): 0.0002 to 0.05 µM

## Clc1cccc(Cl)c1N=C1NCCN1 [Clonidine]
[3]
  Expected cardiac effects in vivo: NI, NC
[1]
  Expected effect on contractility in isolated cardiomyocytes/heart muscles: None
[2]
  FTPC: 0.002 to 0.004 µM
  FPTC (free plasma therapeutic concentration): 0.002 to 0.004 µM
